In US20190361006A1, “METHOD OF PREDICTING CLINICAL OUTCOME OF ANTICANCER AGENTS” (MITRA RXDX, INC., priority 2017, published 2019):

How the values were obtained:
[1] = tested on: Human lung cancer sections; experiment: Patient-derived ex-vivo tumor explant culture on tumor microenvironment platform; H&E and IHC for cleaved caspase 3, MICA/B and CD56; format: cell-based; details: cultured 72 hours in tumor microenvironment platform, IHC, FIG. 1
Experimental: The relevance of changes in the immune contexture of the tumor tissue culture microbed for a non-immunmodulatory agent, either as monotherapy or in combination with an immunomodulatory agent, was examined. Human lung cancer sections from the same patient cultured for 72 hours in the tumor microenvironment platform with gefitinib (a small molecule kinase inhibitor) alone, osimertinib (another small molecule kinase inhibitor)+Pembrolizumab, or vehicle control were assayed for H&E staining and cleaved caspase 3, MICA/B (cell surface ligands that bind immunoreceptors present on natural killer (NK) cells), and CD56 (marker of NK cells) expression.

[2] = tested on: gastrointestinal stromal tumor; experiment: Known clinical outcome of the patient in response to the treatment; format: in vivo, human; details: Patient 1, gastrointestinal stromal tumor
Experimental: (§1) The M-score based on tumor-associated markers and tumor:stroma ratio of CD56+ cells in tumor tissue cultures under control conditions or under pressure from treatment with anticancer drug regimens was determined as described above for 3 different patients whose clinical outcome in response to the respective treatment was known.

[3] = tested on: gastrointestinal stromal tumor; experiment: CD56+ NK cell tumor:stroma ratio by IHC in tumor tissue culture; format: cell-based, human; details: Patient 1, gastrointestinal stromal tumor; control ratio 3
Experimental: The spatial heterogeneity of CD56+ lymphocytes (NK) in areas of tumor vs stroma in pairs of tissues (for control and treatment conditions) from each of a number of patients cultured in the tumor microenvironment platform and treated with various conventional and immuno-modulatory therapies was investigated. IHC analysis for CD56+ cells in slices of tissues under treatment and control conditions was performed, and the number of CD56+ cells in tumor and stromal regions was determined (FIG. 2A). M-score based on tumor-associated markers was determined for each of the tissue pairs as previously described. The ratio of CD56+ cells in areas of tumor cells vs areas of stroma in untreated and drug pressure conditions from the tissue pairs was calculated (FIG. 2B), and the fold change from vehicle to treatment conditions for each pair was determined and binned by M-score >25 and M-score ≤25 (FIG. 2C).
The predictive power of the change in spatial heterogeneity of CD56+NK cells in areas of tumor vs stroma under pressure from treatment with anticancer drug regimens was evaluated. […]

[4] = tested on: gastrointestinal stromal tumor; experiment: M-score (sensitivity index) from tumor-associated marker assays on tumor tissue culture; format: cell-based, human; details: Patient 1, gastrointestinal stromal tumor
Experimental: The tumor tissue cultures were also evaluated using standard assays for tumor proliferation, tumor cell death, tumor morphology, and tumor cell viability as previously described, including tetrazolium salt WST-1 viability assay; LDH release; ATP uptake; glucose uptake; Caspase 3, Caspase 8, and Ki67 expression; and H&E staining. The results of the assays for tumor-associated markers were used to generate assessment scores that were input into a machine-trained algorithm to generate a clinical outcome predictor in the form of an “M-score” for each patient.
M-score based on tumor-associated markers was determined for each of the tissue pairs as previously described.
as §1

Cleaved caspase 3 expression ([1]; vs vehicle control)	SMILES	infiltration of NK cells (CD56) ([1]; vs vehicle-treated)	tumor cell MICA/B expression ([1]; vs vehicle-treated)	Clinical response [2]	Treatment CD56+ tumor:stroma ratio [3]	M-score [4]	M-score prediction [4]
significantly increased	COc1cc2ncnc(Nc3ccc(F)c(Cl)c3)c2cc1OCCCN1CCOCC1 [gefitinib]	increase	increase				
	CC[C@@]1(O)C(=O)OCc2c1cc1n(c2=O)Cc2cc3c(CN(C)C)c(O)ccc3nc2-1 [topotecan]			Responder	5	(M-score = 36)	Responder
